Experiments:
[1] = target: BRD3(1) (Homo sapiens (Human), UniProt Q15059); experiment: Bromodomain binding assay, BRD3(1); details: single point, screened at 30 times Kd; lower numbers indicate stronger hits
Method: (§1) T7 phage strains displaying bromodomains were grown in parallel in 24-well blocks in an E. coli host derived from the BL21 strain. E. coli were grown to log-phase and infected with T7 phage from a frozen stock (multiplicity of infection=0.4) and incubated with shaking at 32° C. until lysis (90-150 min). The lysates were centrifuged (5,000×g) and filtered (0.2 μm) to remove cell debris. Streptavidin-coated magnetic beads were treated with biotinylated small molecule or acetylated peptide ligands for 30 min at RT to generate affinity resins for bromodomain assays. The ligated beads were blocked with excess biotin and washed with blocking buffer (SeaBlock (Pierce), 1% BSA, 0.05% Tween 20, 1 mM DTT) to remove unbound ligand and to reduce non-specific phage binding. Binding reactions were assembled by combining bromodomains, ligated affinity beads, and test compounds in 1× binding buffer (16% SeaBlock, 0.32×PBS, 0.02% BSA, 0.04% Tween 20, 0.004% Sodium azide, 7.9 mM DTT). Test compounds were prepared as 1000× stocks in 100% DMSO and subsequently diluted 1:25 in MEG. The compounds were then diluted directly into the assays such that the final concentrations of DMSO and MEG were 0.1% and 2.4%, respectively. All reactions were performed in polypropylene 384-well plates in a final volume of 0.02 ml. The assay plates were incubated at RT with shaking for 1 hr and the affinity beads were washed with wash buffer (1×PBS, 0.05% Tween 20). The beads were then re-suspended in elution buffer (1×PBS, 0.05% Tween 20, 2 μM non-biotinylated affinity ligand) and incubated at RT with shaking for 30 min. The bromodomain concentration in the eluates was measured by quantitative polymerase chain reaction (qPCR).
(§2) An 11-point 3-fold serial dilution of each test compound was prepared in 100% DMSO at 1000× final test concentration. […] Most dissociation constants were determined using a compound top concentration=10,000 nM. If the initial dissociation constant determined was <0.169 nM (the lowest concentration tested), the measurement was repeated with a serial dilution starting at a lower top concentration. […]

[2] = target: BRDT(1) (Homo sapiens (Human), UniProt Q58F21); experiment: Bromodomain binding assay, BRDT(1); details: single point, screened at 30 times Kd; lower numbers indicate stronger hits
Method: as §1, §2

[3] = target: BRD2(2) (Homo sapiens (Human), UniProt P25440); experiment: Bromodomain binding assay, BRD2(2); details: single point, screened at 30 times Kd; lower numbers indicate stronger hits
BRD2(2), sequence (P25440 344-453): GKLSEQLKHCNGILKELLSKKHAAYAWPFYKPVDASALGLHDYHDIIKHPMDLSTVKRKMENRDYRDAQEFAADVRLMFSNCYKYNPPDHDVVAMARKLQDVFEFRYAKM
Method: as §1, §2

[4] = target: BRD3(2) (Homo sapiens (Human), UniProt Q15059); experiment: Bromodomain binding assay, BRD3(2); details: single point, screened at 30 times Kd; lower numbers indicate stronger hits
BRD3(2), sequence (Q15059 306-415): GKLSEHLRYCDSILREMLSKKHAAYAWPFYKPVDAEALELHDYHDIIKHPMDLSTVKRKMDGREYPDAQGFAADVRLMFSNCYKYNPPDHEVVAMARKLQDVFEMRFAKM
Method: as §1, §2

[5] = target: BRDT(2) (Homo sapiens (Human), UniProt Q58F21); experiment: Bromodomain binding assay, BRDT(2); details: single point, screened at 30 times Kd; lower numbers indicate stronger hits
Method: as §1, §2

[6] = tested on: healthy human skin stimulated by a Th2 or Th17 biasing cocktail; experiment: Th2 and Th17 stimulation of human skin explants, IL-4 / IL-17A mRNA; format: cell-based
Method: • 1. Freshly excised healthy human skin tissue from abdominoplasties is defatted, cleaned and sectioned into 7 mm biopsies. • 2. The biopsies are placed in Transwell® inserts with the epidermis apical and exposed to air and the dermis submerged in media in the basal chamber. • 3. The biopsies are pre-treated overnight at 37° C., 5% CO2 with different compounds and controls added to the media in the basal chamber. • 4. The next day, contents of the basal chamber is replaced with fresh media containing the test compound and a stimulation cocktail for either Th2 inflammation (proprietary Medpharm cocktail) or Th17 inflammation (mix of antibodies against CD3, CD28, IL-4, IFNγ and recombinant IL-1β, IL-6, IL-21, TGF-β). • 5. The biopsies are incubated at 37° C., 5% CO2 for a further 24 hrs. • 6. After harvesting, the biopsies are cut in half, and one half is homogenized and used for RNA extraction by standard methods. IL-4 or IL-17A is assessed by RT-qPCR.

[7] = Skin penetration (Franz cell); format: in vitro ADME; details: epidermis of pig/human skin after 24 hour exposure
Method: A dosing solution was prepared for each test compound at a saturated concentration in an appropriate formulation mixture. The positive control, caffeine (final concentration 10 mg/mL), was prepared in 50:50 transcutol/water. Warm, degassed phosphate buffered saline (PBS) was applied to the receiving chambers of each jacketed Franz cell (1 cm containing a magnetic stirring bar). Pig/Human skin was removed from −80° C. storage and cut to size (˜2 cm^2) using a scalpel. The skin was then allowed to thaw at RT before being placed into warmed PBS for 10 min. Each skin piece was then dried before being placed onto the orifice of the Franz cell, removing any bubbles that occurred. […]
A calibration line was prepared in PBS (5000 ng/mL-0.2 ng/mL). […] All samples were quantified using UPLC-MS/MS (Waters Xevo TQ-S).
The concentration of compound present at each time point was corrected for the addition of fresh buffer. By plotting the concentration of compound vs time, the J flux and T lag could be calculated (values for caffeine should be approximately J Flux: 0.9-1.1 μg/cm/hr, Tlag: 244-257 min, ˜20% of dose present in receiving chamber after 24 hrs, mass balance 70-90%).
Skin extraction samples were corrected for dilution factor and volume of extraction solution. The quantity of dose measured in skin layers and time point samples were used to measure the mass balance of the experiment.

BRD3(1), sequence (Q15059 34-140): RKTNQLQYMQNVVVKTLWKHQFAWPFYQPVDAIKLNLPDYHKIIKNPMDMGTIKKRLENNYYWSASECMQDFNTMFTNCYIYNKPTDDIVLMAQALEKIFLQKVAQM

Cn1cc(-c2cccc(O)c2Oc2ccccc2)c2cc[nH]c2c1=O [Example 1, 4-(3-hydroxy-2-phenoxyphenyl)-6-methyl-1,6-dihydro-7H-pyrrolo[2,3-c]pyridin-7-one]
BRD3(1) % Ctrl [1]: 0 % Ctrl
BRDT(1) % Ctrl [2]: 0 % Ctrl
BRD2(2) % Ctrl [3]: 0.6 % Ctrl
BRD3(2) % Ctrl [4]: 0.05 % Ctrl
BRDT(2) % Ctrl [5]: 3.8 % Ctrl
% reduction in IL-4 mRNA (IL-4) ([6]; 2.5 μM, Th2 biasing cocktail): +++ (> 75% reduction)
% reduction in IL-17A mRNA (IL-17) ([6]; 2.5 μM, Th17 biasing cocktail): +++ (> 75% reduction)
reduction of IL-4 or IL-17 levels ([6]; Th2 or Th17 biasing cocktail): > 50%
Epidermal concentration [7]: 27 µM

Reference: US12384777B2 (Tay Therapeutics Limited, priority 2019, dated 2025)
